This note sets out measurements from patent publication US8809358B2, “Use of IκB-kinase inhibitors in pain therapy” (Sanofi-Aventis Deutschland GmbH, priority 2002, dated 2014).

Experiment [1] relates to Zymosan-induced paw inflammation. The experiment in a line: Zymosan-induced paw inflammation in the mouse: spontaneous running performance in a running wheel. The class given is in vivo, C57/B6 mice. The protocol: 4th Model: • Zymosan-induced paw inflammation in the mouse; • Parameter: spontaneous running performance in a running wheel. In the cage in which it is kept, the experimental animal has access to a running wheel, the revolutions of which are recorded electronically. During the night hours, the C57/B6 mice use the running wheel voluntarily and, after a one-week phase of acclimatization, cover on average 4 100 meters/night. After zymosan has been injected, the distance run each night is reduced. This reduction in running performance is a valid parameter for a restriction in function which is due to inflammation pain. Experimental implementation: After an acclimatization phase of one week, the distance run/24 hours was measured in order to determine the base line. 25 μl of a suspension containing 50 mg of zymosan/ml were then injected into the right hind paw of the experimental animal during short-term anesthesia using isoflurane. The distance run/24 hours was then determined during the following seven days. In the analysis, the area under the curve for the values for the distance run was determined (AUC, tab. 7): the lower the AUC, the lower was the running performance during the week following injection of the zymosan. […] The substance was administered for the first time on day 1 after injection of the zymosan.

Experiment [2] has the same test system. The experiment can be described thus: Zymosan-induced paw inflammation in the mouse: paw withdrawal time during thermal stimulation of the hind paw. The class given is in vivo. To be noted: thermal hyperalgesia AUC, seven days; 200 mg/kg twice daily. The protocol: • Zymosan-induced paw inflammation in the mouse; • Parameter: paw withdrawal time during thermal stimulation of the hind paw. Experimental implementation: In short-term anesthesia using isoflurane, 25 μl of a suspension containing 50 mg of zymosan/ml were injected into the right hind paw of the experimental animal. The development of a hyperalgesia was then determined quantitatively as follows: Determining the Paw Withdrawal Time During Thermal Stimulation (Hargreave's Test; See Above). The experimental animal was placed in a transparent plastic chamber having a glass floor. As soon as the experimental animal was no longer moving, following the reconnaissance phase (about 5 min), an infrared light source was positioned directly below the hind paw to be stimulated and switched on. The lamp emitted focused infrared light of increasing intensity such that the skin temperature of the hind paw increased almost linearly. As soon as the animal withdrew the paw, the lamp switched itself off. The temperature of the paw at the time it is withdrawn has just become unpleasant for the animal; this is referred to as the thermal pain threshold. Shortly before the zymosan injection, and for from 7 to 14 days after the injection, the thermal pain threshold was determined once daily on the right hind paw and left hind paw. Subsequently, the integral of the area which was formed from the curves for the paw withdrawal times of the inflamed paw and the noninflamed paw (AUC, area between the curves, see tables 5 and 6) was determined as a measure of the hyperalgesia. The larger this value is, the more pronounced is the hyperalgesia, and the smaller the value is in animals which are being given the substance, the greater is the success of the therapy. […] A very high dose of paracetamol was likewise administered twice daily to another group of animals which was taken through the experiment in parallel. […] The scheme for zymosan injection and dosing was identical to that in the previously described study. The only difference was that this additional study ran for 14 days.

The subject of experiment [3] is Kaolin/carrageenan-induced knee joint inflammation. The experiment can be described thus: Kaolin/carrageenan-induced knee joint inflammation in the rat: reaction of spinal neurons during pressure stimulation of the knee. The class given is in vivo. From the text: • Zymosan-induced paw inflammation in the rat; • Parameter: paw withdrawal time or paw withdrawal threshold during thermal or mechanical stimulation of the hind paw. 2nd Model: • Kaolin/carrageenan-induced knee joint inflammation in the rat; • Parameter: reaction of spinal neurons during pressure stimulation of the knee. Model 1
Experimental implementation: In rats which were under sodium thiopental anesthesia, the spinal canal was opened and spinal medullary neurons which processed the “pain impulses” from the knee-joint were identified. Following identification, a long-term recording, in which the activity of the nerve cell was recorded before and during the development of an acute inflammation in the knee-joint, was carried out. For this, the responses to non-noxious and noxious stimulation at the knee-joint were measured in a control period before inducing the inflammation and for several hours after inducing the inflammation.
The acute inflammation was induced by the intraarticular injection of a suspension (about 150 μl) of kaolin and carrageenan. In controlled experiments, only the vehicle was applied to the spinal medullary surface in order to represent the development of the hyperexcitability under control conditions. As a rule, this development of hyperexcitability took place within 2 to 4 hours and was expressed in a marked increase in the responses to non-noxious and noxious stimulation of the knee-joint (Tab. 3). […] The responses of the cell to non-noxious and noxious stimulation were then subsequently monitored as in the control experiments.

Experiment [4] has as its target T1, IκB-kinase (Homo sapiens, UniProt O14920+O15111).
T1 construct: endogenous in cells; host or cells: HeLa S3 cell extract S100; ammonium sulfate cut and Superose-6 gel filtration (670 kDa fractions)
The experiment can be described thus: IκB-Kinase ELISA. The class given is biochemical. To be noted: kinase complex from HeLa S3 cell extract, activated with MEKK1Δ.

Usually IC50 stands for the concentration that inhibits the measured activity by half. Low readings indicate greater potency in that assay, high ones weaker potency in that assay.

T1 sequence (O14920 whole entry): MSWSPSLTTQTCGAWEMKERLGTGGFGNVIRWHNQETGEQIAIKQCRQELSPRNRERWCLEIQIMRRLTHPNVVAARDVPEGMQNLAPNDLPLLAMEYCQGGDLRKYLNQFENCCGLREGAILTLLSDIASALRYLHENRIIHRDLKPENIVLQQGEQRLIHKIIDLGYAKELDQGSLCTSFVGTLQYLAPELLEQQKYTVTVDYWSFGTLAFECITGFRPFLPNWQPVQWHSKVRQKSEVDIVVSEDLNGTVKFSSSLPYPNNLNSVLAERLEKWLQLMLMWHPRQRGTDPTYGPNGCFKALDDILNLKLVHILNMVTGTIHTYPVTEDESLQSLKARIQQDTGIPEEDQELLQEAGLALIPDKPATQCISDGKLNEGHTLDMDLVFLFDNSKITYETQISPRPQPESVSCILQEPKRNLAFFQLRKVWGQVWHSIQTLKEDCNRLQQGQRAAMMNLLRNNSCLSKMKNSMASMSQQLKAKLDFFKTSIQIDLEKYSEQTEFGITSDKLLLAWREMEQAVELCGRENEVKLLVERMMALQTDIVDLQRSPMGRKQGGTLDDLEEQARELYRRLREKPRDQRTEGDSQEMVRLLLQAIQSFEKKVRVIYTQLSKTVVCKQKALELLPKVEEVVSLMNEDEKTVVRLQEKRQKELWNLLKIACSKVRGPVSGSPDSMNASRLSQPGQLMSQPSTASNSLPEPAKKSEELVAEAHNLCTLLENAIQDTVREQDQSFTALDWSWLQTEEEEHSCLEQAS
T1 sequence (O15111 whole entry): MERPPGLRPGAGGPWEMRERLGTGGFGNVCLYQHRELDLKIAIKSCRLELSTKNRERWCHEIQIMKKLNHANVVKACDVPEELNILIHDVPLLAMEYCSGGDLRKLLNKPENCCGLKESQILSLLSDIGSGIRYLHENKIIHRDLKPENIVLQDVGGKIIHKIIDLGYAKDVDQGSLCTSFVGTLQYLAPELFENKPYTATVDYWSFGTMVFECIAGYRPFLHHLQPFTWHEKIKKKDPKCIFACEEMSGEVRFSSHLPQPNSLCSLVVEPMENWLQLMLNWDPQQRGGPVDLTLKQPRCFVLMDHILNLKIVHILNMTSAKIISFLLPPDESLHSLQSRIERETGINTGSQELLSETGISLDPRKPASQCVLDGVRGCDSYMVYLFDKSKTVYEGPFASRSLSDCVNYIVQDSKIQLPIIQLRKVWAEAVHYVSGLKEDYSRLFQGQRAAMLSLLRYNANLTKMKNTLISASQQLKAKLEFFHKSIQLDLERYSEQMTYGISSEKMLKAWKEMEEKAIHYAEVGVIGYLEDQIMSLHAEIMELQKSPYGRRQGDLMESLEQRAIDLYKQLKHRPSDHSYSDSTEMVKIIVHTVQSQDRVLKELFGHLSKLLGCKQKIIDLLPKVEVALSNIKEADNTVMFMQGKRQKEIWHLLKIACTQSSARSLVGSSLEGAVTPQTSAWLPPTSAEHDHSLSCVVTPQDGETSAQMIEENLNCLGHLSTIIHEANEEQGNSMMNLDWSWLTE
T1 sequence (Q9Y6K9 whole entry partner): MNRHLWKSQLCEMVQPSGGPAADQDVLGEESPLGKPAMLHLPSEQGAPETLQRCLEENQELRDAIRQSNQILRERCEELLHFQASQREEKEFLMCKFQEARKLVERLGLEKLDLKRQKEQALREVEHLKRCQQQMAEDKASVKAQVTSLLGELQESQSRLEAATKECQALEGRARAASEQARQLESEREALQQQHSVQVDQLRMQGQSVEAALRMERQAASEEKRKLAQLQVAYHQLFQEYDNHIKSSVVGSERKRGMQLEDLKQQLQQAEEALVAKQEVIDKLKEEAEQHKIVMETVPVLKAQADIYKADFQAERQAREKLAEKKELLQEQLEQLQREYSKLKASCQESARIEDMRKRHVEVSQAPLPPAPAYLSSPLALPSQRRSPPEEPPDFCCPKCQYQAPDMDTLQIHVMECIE

For `CC(=O)Nc1ccc(O)cc1` [Paracetamol, reference compound], the “distance run as compared with the vehicle group” value in experiment [1] (mouse, 7 days, extremely high dose) was “no improvement”. Moreover, the “Statistical difference as compared with the vehicle” value in experiment [1] (running wheel AUC, seven days, 200 mg/kg twice daily) is given as “no”; in experiment [2], “yes”.

Turning to `CNc1nccc(-c2nc3cc(C(=O)N[C@@H](CN(c4ccccc4)c4ccccc4)C(N)=O)ccc3[nH]2)n1` [Compound 22, N—((S)-1-carbamoyl-2-diphenylaminoethyl)-2-(2-methylaminopyrimidin-4-yl)-1H-benzimidazole-5-carboxamide], the “Neuronal responses before and during knee-joint inflammation (imp/15 s)” value in experiment [3] (Experiment 1, Non-noxious stimulation at the knee-joint, 30-60 min after K/C injection) is reported as −34.1 imp/15 s; in experiment [3] (Experiment 1, Non-noxious stimulation at the knee-joint, 60-120 min after K/C injection) it was −37.2 imp/15 s; in experiment [3] (Experiment 1, Non-noxious stimulation at the knee-joint, 120-180 min after K/C injection), −32.1 imp/15 s; in experiment [3] (Experiment 1, Non-noxious stimulation at the knee-joint, Baseline) it was 0 imp/15 s; in experiment [3] (Experiment 1, Noxious stimulation at the knee-joint, 30-60 min after K/C injection) it was −109.1 imp/15 s; in experiment [3] (Experiment 1, Noxious stimulation at the knee-joint, 60-120 min after K/C injection), −101.1 imp/15 s. Further, the “Neuronal responses before and during knee-joint inflammation (imp/15 s)” value was −37.8 imp/15 s in experiment [3] (Experiment 1, Noxious stimulation at the knee-joint, 120-180 min after K/C injection); 0 imp/15 s in experiment [3] (Experiment 1, Noxious stimulation at the knee-joint, Baseline); −30.6 imp/15 s in experiment [3] (Experiment 2, Non-noxious stimulation at the knee-joint, 30-60 min after K/C injection); 50.3 imp/15 s in experiment [3] (Experiment 2, Non-noxious stimulation at the knee-joint, 120-180 min after K/C injection); 68.7 imp/15 s in experiment [3] (Experiment 2, Non-noxious stimulation at the knee-joint, 180-240 min after K/C injection); 0 imp/15 s in experiment [3] (Experiment 2, Non-noxious stimulation at the knee-joint, Baseline). Also, the “Neuronal responses before and during knee-joint inflammation (imp/15 s)” value in experiment [3] (Experiment 2, Noxious stimulation at the knee-joint, 30-60 min after K/C injection) is listed as −9.2 imp/15 s; in experiment [3] (Experiment 2, Noxious stimulation at the knee-joint, 120-180 min after K/C injection), 60 imp/15 s; in experiment [3] (Experiment 2, Noxious stimulation at the knee-joint, 180-240 min after K/C injection), 96.7 imp/15 s; in experiment [3] (Experiment 2, Noxious stimulation at the knee-joint, Baseline), 0 imp/15 s. Besides, the “effect in model 2” value in experiment [3] (rat) is “good effect”. In experiment [4], this compound showed an IC50 of 45 nM.
